# The source made the active and inactive calls.
# Key:
# [1] = target: Glucose-6-phosphate 1-dehydrogenase (Homo sapiens, UniProt P11413); assay: inhibition of Homo sapiens G6PD, dose series – biochemical, fluorescence, selectivity assay for P. falciparum G6PD inhibitor project, dose response (AID 504792); type: functional
# [2] = target: Lysine-specific demethylase 4C (Homo sapiens, UniProt Q9H3R0); assay: inhibition of JMJD2C H3K9me3 demethylation – biochemical, DELFIA europium, cherry-picked samples, dose response (AID 488835); type: functional
# [3] = viability of uninfected HEp-2 cells – cell-based, HTS, cytotoxicity control for RSV inhibitor project, dose response (AID 2410); type: functional; conditions: human respiratory syncytial virus
# [4] = A Cell Based Secondary Assay To Explore Cytotoxicity of Compounds that Sensitize Mycobacterium Tuberculosis to Beta-Lactam Antibiotics.; type: functional
# Vero [5] = assay: cells; type: functional, cell-based; conditions: Chlorocebus sabaeus
# BJ [6] = assay: growth inhibition of engineered Ras-driven BJ cells – cell-based, alamar blue fluorescence, cherrypicked samples, dose response (AID 2631); type: functional; conditions: Homo sapiens;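 also: confirmatory dose-response assay in RAS-dependent BJ fibroblasts engineered with TERT, LT and ST, with cytotoxicity read by fluorescence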
# [7] = Counterscreen for AddAB inhibitors: absorbance-based bacterial cell-based high throughput dose response assay for inhibitors of bacterial viability. [Related pubchem assays (depositor defined):AID435030, AID449728, AID449731, AID488942, AID488955, AID488956]; type: functional
# [8] = alpha-synuclein stem-loop luciferase translation blockers – H4 neuroglioma cells, luminescence, confirmation (AID 1988); type: functional, cell-based
# [9] = luciferase reporter signal reduction – luminescence, H4-C neuroglioblastoma cells, dose response (AID 2458); type: functional, cell-based;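 also: H4 neuroglioblastoma cells stably carrying a luciferase reporter gene fusion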
# [10] = Luminescence Cell-Based Dose Response HTS to Identify Inhibitors of 5'UTR Stem-Loop Driven Prion Protein mRNA Translation in H4 Neuroglioblastoma Cells. [Related pubchem assays: 1827 (Project Summary), 1813 (Primary HTS)]; type: functional
# [11] = decrease of insulin promoter-GFP reporter – imaging, high-content screening, mouse beta cells (AID 1628); type: functional; conditions: MIN6
# Streptococcus = assay: GAS UMAA2166 growth inhibition – luminescence, BacTiterGlo, counter-screen for streptokinase expression inhibitor project, dose response (AID 1915); type: functional, organism-based;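 also: potency for reduction of bacterial viability or growth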
# BJ [12] = assay: BJ-TERT-LT-ST fibroblast viability loss – cell-based, RAS-independent, luminescence, dose response (AID 1935); type: functional; conditions: Homo sapiens;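 also: BJ fibroblasts immortalized with TERT plus LT and ST oncogenes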
# BJ [13] = assay: cells; type: functional, cell-based; conditions: Homo sapiens
# [14] = DRD fibroblast viability loss – cell-based, non-viral oncogenic, luminescence, dose response (AID 1934); type: functional; conditions: Homo sapiens
# [15] = luciferase reporter signal suppression in cells – H4 neuroglioma cells, luminescence, dose response (AID 1990); type: functional, cell-based
# Exodeoxyribonuclease V = Exodeoxyribonuclease V (Escherichia coli (strain K12), UniProt P04993+P07648+P08394); assay: RecBCD inhibition via phage-restricted bacterial growth – absorbance, V66 E. coli, mutant T4 phage, counter-screen for AddAB inhibitor project, dose response (AID 492957); type: functional, cell-based, Escherichia coli str. K-12 substr. MG1655
# [16] = target: Heat shock protein HSP 90-alpha (Homo sapiens, UniProt P07900); type: functional, organism-based
# Vero [17] = assay: cells; type: functional; conditions: Chlorocebus sabaeus
# [18] = target: T1, Heat shock factor protein 1 (Mus musculus, UniProt P38532); assay: enhancement of HSF1-driven luciferase signal – cell-based, NIH3T3, luminescence, dose retest, confirmation (AID 435004); type: functional;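 also: stress induced by proteasome inhibitor MG132 added 30 min after compound; luciferase reporter driven by HSF1 response element in NIH3T3 cells; actives raise luminescence as potentiators of the MG132 stress response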
# T1 sequence (P38532 whole entry): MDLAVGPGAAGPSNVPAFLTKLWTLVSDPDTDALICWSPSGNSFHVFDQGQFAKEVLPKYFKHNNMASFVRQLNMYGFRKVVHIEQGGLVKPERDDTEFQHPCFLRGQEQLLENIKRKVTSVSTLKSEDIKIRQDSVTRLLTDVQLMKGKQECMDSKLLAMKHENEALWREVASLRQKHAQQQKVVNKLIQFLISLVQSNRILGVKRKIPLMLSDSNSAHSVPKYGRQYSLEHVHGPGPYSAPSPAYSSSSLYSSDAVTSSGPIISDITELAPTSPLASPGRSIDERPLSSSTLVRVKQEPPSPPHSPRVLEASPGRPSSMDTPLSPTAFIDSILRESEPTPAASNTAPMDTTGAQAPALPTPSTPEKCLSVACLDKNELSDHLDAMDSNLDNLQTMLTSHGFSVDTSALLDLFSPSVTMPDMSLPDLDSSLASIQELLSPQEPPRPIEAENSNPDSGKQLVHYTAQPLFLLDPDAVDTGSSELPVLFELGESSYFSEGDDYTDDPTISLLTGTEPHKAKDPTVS
# [19] = alpha-synuclein stem-loop translation blockers – luminescence, H4 neuroglioblastoma cells, dose confirmation, confirmation (AID 2454); type: functional, cell-based;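 also: H4 neuroglioblastoma cells carrying an alpha-synuclein 5'UTR luciferase reporter; potency for inhibition of the luciferase signal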
# [20] = MIN6 cell viability loss – mouse insulinoma, cytotoxicity control, dose response (AID 2122); type: functional;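 also: confirmatory high-throughput counterscreen run to flag cytotoxic compounds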
# [21] = tested on: Streptococcus sp. 'group A'; assay: Streptococcus pyogenes SK(-)GAS viability under kanamycin – luminescence, BacTiterGlo, confirmation, counter-screen for streptokinase expression inhibitor project, dose response (AID 1900); type: functional, organism-based
# [22] = HEK-293T viability loss after treatment – luminescence, T-cell screen hits, cytotoxicity control for TCR NF-kB inhibitor project, dose response (AID 489026); type: functional, cell-based;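 also: cells exposed to compound about 14 hours before the viability readout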
# cells = type: functional, cell-based
# BJ [23] = assay: BJ-TERT fibroblast viability loss – cell-based, RAS-independent, luminescence, dose response (AID 1933); type: functional; conditions: Homo sapiens
# HEK293 [24] = assay: inhibition of NOD1-driven NF-kB reporter – cell-based, luminescence, uHTS, primary screen (AID 1578); type: functional; conditions: Homo sapiens
# HEK293 [25] = assay: cells; type: functional, cell-based; conditions: Homo sapiens
# HEK293 [26] = assay: cells; type: functional, cell-based; conditions: Homo sapiens; remark: listed apart in the source
# [27] = target: Nucleotide-binding oligomerization domain-containing protein 2 (Homo sapiens, UniProt Q9HC29); assay: inhibition of NOD2-driven NF-kB reporter – cell-based, luminescence, uHTS, HEK293 (AID 1566); type: functional
# HEK293 [28] = assay: NOD2 signaling inhibitors in MDP-stimulated cells, cell-based, uHTS, luminescence (AID 2001); type: functional; conditions: Homo sapiens
# HEK293 [29] = assay: cells; type: functional, cell-based; conditions: Homo sapiens; remark: listed apart in the source
# [30] = target: T2, Dual specificity protein phosphatase 6 (Rattus norvegicus, UniProt Q64346)
# T2 sequence (Q64346 whole entry): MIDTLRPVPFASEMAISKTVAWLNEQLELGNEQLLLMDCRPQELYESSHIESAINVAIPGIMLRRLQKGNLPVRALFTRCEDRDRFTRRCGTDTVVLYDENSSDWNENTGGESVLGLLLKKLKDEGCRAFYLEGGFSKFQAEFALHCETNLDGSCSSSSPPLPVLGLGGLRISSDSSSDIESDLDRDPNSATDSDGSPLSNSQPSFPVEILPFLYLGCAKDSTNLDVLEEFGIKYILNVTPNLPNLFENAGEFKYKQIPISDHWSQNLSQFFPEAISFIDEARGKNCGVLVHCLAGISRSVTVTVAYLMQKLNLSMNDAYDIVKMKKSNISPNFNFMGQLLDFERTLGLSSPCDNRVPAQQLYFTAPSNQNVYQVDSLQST
# [31] = target: Glyceraldehyde-3-phosphate dehydrogenase (Homo sapiens, UniProt P04406)
# [32] = target: T3, Tyrosine-protein phosphatase non-receptor type 7 (Homo sapiens, UniProt P35236); type: functional
# T3 sequence (P35236 whole entry): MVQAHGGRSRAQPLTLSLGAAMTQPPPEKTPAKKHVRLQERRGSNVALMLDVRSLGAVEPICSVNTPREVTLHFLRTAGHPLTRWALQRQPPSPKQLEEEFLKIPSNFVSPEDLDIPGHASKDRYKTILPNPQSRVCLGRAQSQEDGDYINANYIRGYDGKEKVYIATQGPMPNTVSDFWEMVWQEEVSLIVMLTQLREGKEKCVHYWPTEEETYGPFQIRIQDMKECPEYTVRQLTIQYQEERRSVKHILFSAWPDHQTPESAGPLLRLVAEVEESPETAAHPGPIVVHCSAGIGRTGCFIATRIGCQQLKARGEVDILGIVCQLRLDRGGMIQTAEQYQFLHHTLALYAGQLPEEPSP
# [33] = target: T2, Dual specificity protein phosphatase 6; type: functional
# [34] = Trypanosoma cruzi growth suppression in host cells – NIH3T3 host cells, beta-gal luminescence, confirmation (AID 2044); type: functional, cell-based;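 also: intracellular parasites grown in NIH/3T3 mouse fibroblasts as host cells; luminescent beta-galactosidase reporter signal from transgenic T. cruzi replicating inside host cells; inhibitors lower the luminescence signal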
# Vero [35] = assay: mammalian cell viability reduction – secondary assay, cytotoxicity control for West Nile virus antiviral project, dose response (AID 1650); type: functional; conditions: Chlorocebus sabaeus
# [36] = NIH3T3 cell viability loss – ATP luminescence, mouse fibroblasts, counter-screen, dose response (AID 2010); type: functional, cell-based;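 also: cells exposed to compound for about 90 hours before reading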
# Paired box protein Pax-8 = Paired box protein Pax-8 (Homo sapiens, UniProt Q06710); assay: PAX8 transcriptional activity inhibition in RMG-I – RMG-I cells, luciferase, cherry-pick, dose response (AID 687027); type: functional, cell-based;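 also: luciferase reporter driven by Pax8 target thyroperoxidase promoter measured by SteadyGlo luminescence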
# HEK293 [37] = assay: cells; conditions: Homo sapiens
# HEK293 [38] = assay: cells; conditions: Homo sapiens; remark: listed apart in the source
# [39] = target: T4, Calpain-2 catalytic subunit (Sus scrofa, UniProt P43367); assay: m-calpain protease blockers, concentration series – biochemical, fluorogenic peptide substrate, dose response (AID 1420); type: functional
# T4 sequence (P43367 whole entry): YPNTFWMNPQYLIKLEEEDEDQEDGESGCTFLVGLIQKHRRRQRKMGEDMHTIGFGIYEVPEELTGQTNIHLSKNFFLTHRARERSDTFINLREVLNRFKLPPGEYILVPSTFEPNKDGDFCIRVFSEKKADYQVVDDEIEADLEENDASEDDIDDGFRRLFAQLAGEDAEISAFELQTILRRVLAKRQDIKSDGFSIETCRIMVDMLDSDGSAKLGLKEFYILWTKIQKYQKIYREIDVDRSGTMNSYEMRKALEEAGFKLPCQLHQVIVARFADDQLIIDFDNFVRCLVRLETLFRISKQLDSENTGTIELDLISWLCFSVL
# Sequence of Paired box protein Pax-8 (Q06710 whole entry): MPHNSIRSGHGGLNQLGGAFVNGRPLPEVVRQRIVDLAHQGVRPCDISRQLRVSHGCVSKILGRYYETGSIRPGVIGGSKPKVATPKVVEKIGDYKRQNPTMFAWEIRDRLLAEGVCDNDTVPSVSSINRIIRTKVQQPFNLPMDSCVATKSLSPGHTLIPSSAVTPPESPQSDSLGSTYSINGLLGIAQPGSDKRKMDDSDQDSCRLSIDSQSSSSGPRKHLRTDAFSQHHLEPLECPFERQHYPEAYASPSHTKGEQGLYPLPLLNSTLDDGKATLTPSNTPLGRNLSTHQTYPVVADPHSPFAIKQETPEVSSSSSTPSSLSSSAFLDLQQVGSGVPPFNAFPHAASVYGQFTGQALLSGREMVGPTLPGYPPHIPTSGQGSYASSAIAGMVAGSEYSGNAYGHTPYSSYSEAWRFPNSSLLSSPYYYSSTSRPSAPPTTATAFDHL
# Sequence of Glyceraldehyde-3-phosphate dehydrogenase (P04406 whole entry): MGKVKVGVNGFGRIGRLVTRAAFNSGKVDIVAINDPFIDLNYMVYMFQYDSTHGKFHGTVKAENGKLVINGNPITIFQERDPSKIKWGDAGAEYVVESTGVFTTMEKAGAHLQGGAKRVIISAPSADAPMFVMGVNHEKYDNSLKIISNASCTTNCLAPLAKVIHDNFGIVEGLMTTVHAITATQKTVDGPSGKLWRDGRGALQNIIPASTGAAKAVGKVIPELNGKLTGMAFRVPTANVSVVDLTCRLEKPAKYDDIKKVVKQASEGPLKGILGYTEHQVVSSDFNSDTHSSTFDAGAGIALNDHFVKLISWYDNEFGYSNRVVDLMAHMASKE
# Sequence of Exodeoxyribonuclease V (P04993 whole entry): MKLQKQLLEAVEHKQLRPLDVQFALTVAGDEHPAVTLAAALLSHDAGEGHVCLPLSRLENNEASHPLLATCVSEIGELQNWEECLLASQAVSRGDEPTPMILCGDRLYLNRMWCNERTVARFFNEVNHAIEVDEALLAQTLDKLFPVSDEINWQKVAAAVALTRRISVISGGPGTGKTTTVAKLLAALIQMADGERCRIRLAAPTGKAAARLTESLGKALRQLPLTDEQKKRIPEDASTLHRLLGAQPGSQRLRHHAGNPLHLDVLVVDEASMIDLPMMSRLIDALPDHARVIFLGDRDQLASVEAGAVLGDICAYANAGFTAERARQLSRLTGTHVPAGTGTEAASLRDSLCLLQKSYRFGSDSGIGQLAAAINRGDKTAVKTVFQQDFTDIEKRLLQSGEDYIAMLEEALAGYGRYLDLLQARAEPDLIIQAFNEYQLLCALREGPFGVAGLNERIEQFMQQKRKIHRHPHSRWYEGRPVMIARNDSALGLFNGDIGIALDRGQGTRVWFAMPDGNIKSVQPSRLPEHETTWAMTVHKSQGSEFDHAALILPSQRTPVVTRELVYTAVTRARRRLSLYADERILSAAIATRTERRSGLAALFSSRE
# Sequence of Exodeoxyribonuclease V (P07648 whole entry): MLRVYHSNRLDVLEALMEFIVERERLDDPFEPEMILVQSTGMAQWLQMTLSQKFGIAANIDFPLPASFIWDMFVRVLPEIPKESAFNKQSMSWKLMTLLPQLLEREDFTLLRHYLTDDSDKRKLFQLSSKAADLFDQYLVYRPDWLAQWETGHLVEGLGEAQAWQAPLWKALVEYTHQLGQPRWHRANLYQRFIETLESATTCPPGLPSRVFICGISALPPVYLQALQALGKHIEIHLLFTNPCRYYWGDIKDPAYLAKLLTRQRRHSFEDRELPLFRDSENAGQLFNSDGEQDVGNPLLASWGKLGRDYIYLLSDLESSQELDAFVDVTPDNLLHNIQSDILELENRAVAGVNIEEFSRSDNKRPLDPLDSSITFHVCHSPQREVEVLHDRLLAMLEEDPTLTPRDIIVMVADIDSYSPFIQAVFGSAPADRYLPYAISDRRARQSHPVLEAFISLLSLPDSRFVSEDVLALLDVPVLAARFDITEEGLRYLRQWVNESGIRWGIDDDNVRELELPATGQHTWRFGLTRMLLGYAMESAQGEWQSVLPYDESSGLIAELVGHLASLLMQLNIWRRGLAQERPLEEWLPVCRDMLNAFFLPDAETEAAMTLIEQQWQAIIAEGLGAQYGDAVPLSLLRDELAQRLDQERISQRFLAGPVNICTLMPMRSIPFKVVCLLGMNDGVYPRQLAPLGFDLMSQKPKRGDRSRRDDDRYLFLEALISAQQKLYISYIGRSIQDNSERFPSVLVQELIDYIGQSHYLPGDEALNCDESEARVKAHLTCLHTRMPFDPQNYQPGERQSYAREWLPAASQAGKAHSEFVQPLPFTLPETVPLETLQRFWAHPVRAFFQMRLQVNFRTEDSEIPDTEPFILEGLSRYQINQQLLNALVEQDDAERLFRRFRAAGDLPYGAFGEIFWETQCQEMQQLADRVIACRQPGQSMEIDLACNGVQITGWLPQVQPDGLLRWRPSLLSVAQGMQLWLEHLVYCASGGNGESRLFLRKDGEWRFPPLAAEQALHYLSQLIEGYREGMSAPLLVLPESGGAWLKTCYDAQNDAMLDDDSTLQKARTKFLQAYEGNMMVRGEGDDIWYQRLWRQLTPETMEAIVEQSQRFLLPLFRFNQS
# Sequence of Exodeoxyribonuclease V (P08394 whole entry): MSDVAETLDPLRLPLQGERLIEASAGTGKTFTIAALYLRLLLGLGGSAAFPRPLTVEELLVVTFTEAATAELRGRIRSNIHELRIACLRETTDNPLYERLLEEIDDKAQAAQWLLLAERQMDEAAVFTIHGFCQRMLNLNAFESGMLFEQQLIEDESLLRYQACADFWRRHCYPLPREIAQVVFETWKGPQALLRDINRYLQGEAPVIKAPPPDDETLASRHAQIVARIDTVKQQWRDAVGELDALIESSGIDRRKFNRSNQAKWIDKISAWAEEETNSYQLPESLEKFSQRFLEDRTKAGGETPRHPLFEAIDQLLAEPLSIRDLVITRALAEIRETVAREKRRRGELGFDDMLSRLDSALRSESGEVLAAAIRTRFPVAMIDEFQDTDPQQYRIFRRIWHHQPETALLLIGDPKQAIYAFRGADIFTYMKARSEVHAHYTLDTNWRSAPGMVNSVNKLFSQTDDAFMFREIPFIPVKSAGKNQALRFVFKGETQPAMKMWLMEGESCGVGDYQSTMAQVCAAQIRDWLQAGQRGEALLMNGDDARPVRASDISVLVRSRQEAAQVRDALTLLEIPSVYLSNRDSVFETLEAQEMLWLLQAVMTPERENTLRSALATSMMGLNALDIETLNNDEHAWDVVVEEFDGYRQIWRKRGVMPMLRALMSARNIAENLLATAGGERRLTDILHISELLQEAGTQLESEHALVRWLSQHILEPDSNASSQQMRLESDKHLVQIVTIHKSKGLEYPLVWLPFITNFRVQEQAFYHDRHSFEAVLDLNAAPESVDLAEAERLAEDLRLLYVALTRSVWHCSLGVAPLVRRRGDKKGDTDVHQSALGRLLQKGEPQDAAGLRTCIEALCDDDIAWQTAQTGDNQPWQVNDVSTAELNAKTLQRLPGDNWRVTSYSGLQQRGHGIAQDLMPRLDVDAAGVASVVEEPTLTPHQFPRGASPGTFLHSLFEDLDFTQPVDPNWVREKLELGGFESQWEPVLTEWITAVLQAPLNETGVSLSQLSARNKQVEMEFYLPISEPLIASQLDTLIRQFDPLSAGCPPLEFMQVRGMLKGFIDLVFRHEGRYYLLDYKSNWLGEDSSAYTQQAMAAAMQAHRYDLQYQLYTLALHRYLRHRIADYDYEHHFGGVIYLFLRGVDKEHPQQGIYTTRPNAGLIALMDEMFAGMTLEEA
# Sequence of Lysine-specific demethylase 4C (Q9H3R0 whole entry): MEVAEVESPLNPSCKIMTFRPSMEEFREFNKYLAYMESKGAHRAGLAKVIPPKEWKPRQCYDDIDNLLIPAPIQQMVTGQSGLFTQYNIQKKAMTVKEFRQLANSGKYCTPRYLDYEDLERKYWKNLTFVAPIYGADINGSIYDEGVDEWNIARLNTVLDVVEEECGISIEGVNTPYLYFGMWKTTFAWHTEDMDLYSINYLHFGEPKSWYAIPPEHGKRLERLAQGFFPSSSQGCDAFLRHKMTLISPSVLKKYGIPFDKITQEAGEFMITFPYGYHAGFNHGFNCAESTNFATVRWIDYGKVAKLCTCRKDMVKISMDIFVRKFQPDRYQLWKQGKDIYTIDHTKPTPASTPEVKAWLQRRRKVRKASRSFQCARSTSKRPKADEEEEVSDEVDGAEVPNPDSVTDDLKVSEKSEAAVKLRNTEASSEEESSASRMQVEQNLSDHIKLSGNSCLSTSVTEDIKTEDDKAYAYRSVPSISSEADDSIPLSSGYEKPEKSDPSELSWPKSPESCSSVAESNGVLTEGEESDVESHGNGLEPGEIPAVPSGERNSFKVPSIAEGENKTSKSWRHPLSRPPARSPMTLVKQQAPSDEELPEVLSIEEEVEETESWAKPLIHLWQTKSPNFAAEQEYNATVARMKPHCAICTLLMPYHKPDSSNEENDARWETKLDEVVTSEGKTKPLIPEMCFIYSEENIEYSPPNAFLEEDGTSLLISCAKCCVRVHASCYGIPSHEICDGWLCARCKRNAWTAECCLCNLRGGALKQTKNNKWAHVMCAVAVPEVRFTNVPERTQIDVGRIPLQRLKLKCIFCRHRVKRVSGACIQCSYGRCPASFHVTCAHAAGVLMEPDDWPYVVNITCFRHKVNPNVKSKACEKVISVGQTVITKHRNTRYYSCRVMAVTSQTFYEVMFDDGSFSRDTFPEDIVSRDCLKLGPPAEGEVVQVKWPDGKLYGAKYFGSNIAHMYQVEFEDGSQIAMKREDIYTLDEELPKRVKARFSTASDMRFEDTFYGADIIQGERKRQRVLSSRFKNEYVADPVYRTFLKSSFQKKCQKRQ
smiles,measurement,setting,value
CCOc1ccc(N(CC(=O)N/N=C/c2cc([N+](=O)[O-])ccc2Cl)S(C)(=O)=O)cc1,IC50,[1],> 80 µM (inactive)
Cc1cc(C=C2C(=O)NC(=S)NC2=O)c(C)n1-c1ccc2c(c1)OCO2,AC50,[2],9.41 µM (active)
same,CC50,[3],14.3 µM (active)
same,CC50,[4],> 40 µM (active)
Oc1ccccc1N=Nc1nc(-c2ccccc2)c(-c2ccccc2)[nH]1,IC50,Vero [5],> 25 µM (active)
same,EC50,BJ [6],0.118 µM (active)
same,IC50,[7],> 119 µM (inactive)
same,EC50,[8],< 0.1 µM (active)
same,EC50,[9],0.282 µM (active)
same,EC50,[10],0.103 µM (active)
same,IC50,[11],0.533 µM (active)
same,EC50,Streptococcus,1.05 µM (active)
same,EC50,BJ [12],1.67 µM (active)
same,EC50,BJ [13],0.951 µM (active)
same,EC50,[14],0.515 µM (active)
same,EC50,[15],< 0.1 µM (active)
same,IC50,Exodeoxyribonuclease V,> 119 µM (inactive)
same,AC50,[16],2.29 µM (active)
same,CC50,Vero [17],0.06 µM (active)
same,EC50,[18],26 µM (active)
same,EC50,[19],0.507 µM (active)
same,IC50,[20],0.82 µM (active)
same,EC50,[21],0.278 µM (active)
same,IC50,[22],> 80 µM (inactive)
same,EC50,cells,0.355 µM (active)
same,EC50,BJ [23],0.643 µM (inconclusive)
Brc1ccc2ncnc(NCc3ccco3)c2c1,EC50,HEK293 [24],3.41 µM (active)
same,IC50,HEK293 [25],> 20 µM (inactive)
same,IC50,HEK293 [26],4.57 µM (active)
same,EC50,[27],6.5 µM (active)
same,IC50,HEK293 [28],5.54 µM (active)
same,IC50,HEK293 [29],> 20 µM (inactive)
Cn1c(=O)n(-c2ccccc2)c(=O)n([C@@H](Cc2ccccc2)C(N)=O)c1=O,IC50,[30],> 100 µM (inactive)
same,IC50,[31],> 100 µM (not active)
same,IC50,[32],> 100 µM (not active)
same,IC50,[33],> 100 µM (inactive)
O=c1cc(C(Cl)(Cl)Cl)oc2c1ccc1ccccc12,EC50,[34],0.893 µM (active)
same,IC50,[11],1.78 µM (active)
same,CC50,Vero [35],5.35 µM (active)
same,EC50,[36],3.32 µM (active)
same,AC50,Paired box protein Pax-8,2.66 µM (active)
same,IC50,[20],1.28 µM (active)
Cn1c(=O)n(C)c2cc(S(=O)(=O)N3CCCc4ccccc43)ccc21,EC50,HEK293 [37],> 59.6 µM (inactive)
same,EC50,HEK293 [38],> 59.6 µM (inactive)
same,IC50,[39],7.05 µM (not active)

# Source: ChEMBL document CHEMBL1201862, “PubChem BioAssay data set” (2004)
